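Each compound was tested at five concentrations against cells in 96-well plates for 48 hours. Here, GI50 denotes the concentration required for 50% inhibition of growth. The concentration for full growth arrest is given as TGI.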

Drawing on PubChem BioAssay (NCI), this text covers GI50 and TGI for 17 molecules.

Experiment in all cases: NCI-60 cell line screen, 48 h
In experiment [1] the test system is IGROV1 ovarian.
Experiment [2] concerns SK-MEL-2 melanoma.
For experiment [3], the system named is NCI-H226 lung.
For experiment [4], the system named is HOP-62 NSCLC.
Experiment [5] relates to HCT-116 colon.
Experiment [6] relates to SR leukemia.
In experiment [7] the test system is DU-145 prostate.
Experiment [8] deals with HCC-2998 colon.
In experiment [9] the test system is HOP-92 NSCLC.
Experiment [10] deals with ACHN renal.

`C/C(=N/NC(=S)Nc1ccccc1)c1nc2ccc(Cl)cc2[nH]1`: the GI50 was 0.14 µM in experiment [1]; 0.252 µM in experiment [2]; 0.134 µM in [3]; 0.101 µM in [4]; 0.0811 µM in experiment [5]; 0.0881 µM in experiment [6]. The GI50 in [7] was 0.0821 µM; in experiment [8], 0.135 µM; in experiment [9] it was 0.585 µM. The TGI worked out at 1.19 µM in experiment [1]; 0.901 µM in [2]; 0.925 µM in experiment [3]; 0.935 µM in experiment [4]; 0.771 µM in experiment [5]; 1.23 µM in experiment [6]. Moreover, the TGI worked out at 0.645 µM in experiment [7], 0.725 µM in experiment [8] and 1.52 µM in experiment [9].

As for `N=C1CCCC1C(=S)SCCC(N)=O` (stereo not given), the TGI in experiment [1], in [2], in experiment [3], in experiment [4], in experiment [5] and in experiment [6] was > 100 µM throughout. Also, the TGI in [7], in experiment [10], in experiment [8] and in [9] was > 100 µM throughout.

On to `CC1(C)CC(C)(C)c2cc(NC(=S)Nc3ccc([N+](=O)[O-])cc3)ccc2S1`, for which the GI50 in experiment [1] is 10.5 µM; in experiment [2], 10.5 µM; in [3], 14.3 µM; in experiment [4], 18.3 µM; in [5] it was 14.9 µM; in experiment [6], 12.9 µM. Besides, the GI50 was 13.1 µM in experiment [7], 10.1 µM in experiment [10], 4.42 µM in experiment [8] and 19.1 µM in experiment [9]. The TGI in experiment [1] is 29 µM; in experiment [2], 23.1 µM; in experiment [3], 38.5 µM; in experiment [4], > 49.5 µM; in experiment [5], > 100 µM; in experiment [6], > 88.2 µM. Also, the TGI amounted to 34.6 µM in [7], 24.6 µM in experiment [10], 24.6 µM in [8] and 36.5 µM in experiment [9].

`O=C1NC(=NCCc2ccc(Cl)cc2)S/C1=C\c1ccc2ncccc2c1`: the GI50 is 17.6 µM in experiment [1]; 8.28 µM in experiment [2]; > 25 µM in [3]; 14.3 µM in [4]; 9.14 µM in [5]; 6.92 µM in experiment [6]. Also, the GI50 in experiment [7] was 24.4 µM; in experiment [10] it was 24.6 µM; in experiment [8], > 25 µM; in [9], 7.32 µM. The TGI in experiment [1], in [2], in experiment [3], in experiment [4], in [5] and in experiment [6] was > 25 µM each time. Further, the TGI in experiment [7], in experiment [10], in [8] and in experiment [9] was > 25 µM in each case.

For `COc1ccc(-n2c(=S)sc3c(Cl)nc(C)nc32)c(OC)c1`, the GI50 in experiment [1] was 1.93 µM; in experiment [2] it was 2.04 µM; in [3] it was 3.22 µM; in experiment [4] it was 2.57 µM; in experiment [5], 1.83 µM; in experiment [6] it was 1.42 µM. The GI50 is 1.84 µM in [7], 2.08 µM in experiment [10], 16.2 µM in experiment [8] and 2.06 µM in experiment [9]. The TGI stood at 3.99 µM in experiment [1]; 3.97 µM in experiment [2]; 12 µM in experiment [3]; 7.68 µM in [4]; 3.71 µM in experiment [5]; 5.52 µM in experiment [6]. For the same molecule, the TGI in experiment [7] stood at 3.25 µM; in [10], 3.97 µM; in experiment [8], 31.1 µM; in [9], 8.46 µM.

For the molecule `C[C@@]1(F)[C@H](O)[C@@H](CO)O[C@H]1n1ccc(=O)[nH]c1=O`, the GI50 in experiment [1], in [2], in [3], in experiment [4], in experiment [5] and in experiment [6] was > 100 µM each time. Also, the GI50 in experiment [7], in experiment [10], in experiment [8] and in [9] was > 100 µM each time. For the same molecule, the TGI in experiment [1], in [2], in [3], in experiment [4], in experiment [5] and in [6] was > 100 µM throughout. Besides, the TGI in [7], in experiment [10], in experiment [8] and in experiment [9] was > 100 µM throughout.

With `CC1CCC2C(C)C(=O)OC2C2(C)C(=O)C=CC12` (stereo not given), the TGI in [1], in experiment [2], in [3], in [4], in experiment [5] and in [6] was > 10 µM each time. Moreover, the TGI in experiment [7], in [10], in [8] and in [9] was > 10 µM each time.

For `COc1ccc2[nH]c(C(=O)N3CCN(C(=O)OCc4ccc5c(Cl)cc(Cl)c(O)c5n4)CC3)cc2c1`, the GI50 in experiment [1] is 0.527 µM; in experiment [2], 1.61 µM; in experiment [3], 1.18 µM; in experiment [4], 1.56 µM; in [5], 0.295 µM; in [6] it was 0.232 µM. For the same molecule, the GI50 was 1.19 µM in [7], 0.592 µM in experiment [10], 1.7 µM in [8] and 0.864 µM in experiment [9]. For the same molecule, the TGI in [1] was found to be 1.86 µM; in experiment [2] it was 3.06 µM; in [3], 2.56 µM; in experiment [4] it was 3.36 µM; in [5] it was 1.35 µM; in experiment [6], 1.05 µM. The TGI in experiment [7] came out at 2.53 µM; in experiment [10] it was 1.87 µM; in [8] it was 3.32 µM; in experiment [9], 2.4 µM.

For the molecule `COc1ccc(-c2ccc(OC)c(OC)c2OC)cc1`, the GI50 is 4.08 µM in [1]; 3.8 µM in experiment [2]; 17.3 µM in experiment [3]; 2.87 µM in [4]; 1.13 µM in experiment [5]; 0.572 µM in experiment [6]. The GI50 is 2.83 µM in experiment [7], 8 µM in experiment [10], 2.65 µM in [8] and 1.32 µM in [9]. The TGI in [1] is > 100 µM; in [2] it was > 100 µM; in [3], > 100 µM; in [4], > 100 µM; in experiment [5], 32.6 µM; in experiment [6], > 100 µM. Also, the TGI in experiment [7] was 19.3 µM; in experiment [10] it was > 100 µM; in experiment [8], 32 µM; in experiment [9], 63 µM.

For the molecule `Nc1cc2c3c(cccc3c1)C(=O)N(CCN1CCCC1)C2=O`, the GI50 in [1] is 1.33 µM; in experiment [2] it was 4.96 µM; in experiment [3], 1.98 µM; in experiment [4], 2.58 µM; in [5], 2.73 µM; in experiment [6], 0.979 µM. For the same molecule, the results for the GI50 in [7], in experiment [8] and in [9] were 2.01 µM, 2.78 µM and 2.94 µM, respectively. Further, the TGI in [1] was > 100 µM; in experiment [2] it was 19.2 µM; in experiment [3], 6.23 µM; in experiment [4], 25.5 µM; in experiment [5] it was > 35 µM; in [6] it was > 22.4 µM. For the same molecule, the TGI in [7] is 37.4 µM; in experiment [8], 15 µM; in experiment [9], > 54.4 µM.

In the case of `COC1=CC(c2ccc[nH]2)=N/C1=C\c1[nH]c(C)c(C(=O)CCCCCCCCC(=O)O[C@H]2CC[C@H]3C4CCc5cc(O)ccc5C4CC[C@]23C)c1C` (stereo not given in full), the GI50 in experiment [1] was 1.06 µM; in [2], 0.247 µM; in experiment [3] it was 2.99 µM; in experiment [4], 0.483 µM; in [5], 0.159 µM; in experiment [6] it was 0.209 µM. Moreover, the GI50 in experiment [7] was 0.387 µM; in experiment [10], 1.16 µM; in experiment [8], 0.623 µM; in experiment [9], 0.167 µM. Further, the TGI in experiment [1] is > 50 µM; in experiment [2] it was 1.95 µM; in [3], > 11.4 µM; in experiment [4] it was 10.2 µM; in [5], > 22.1 µM; in experiment [6], > 20.2 µM. The TGI is > 50 µM in [7], > 50 µM in experiment [10], > 50 µM in experiment [8] and 1.43 µM in experiment [9].

On to `N#C/C(=C\c1ccc2[nH]ccc2c1)C(=O)NCCCCNC(=O)/C(C#N)=C/c1ccc2[nH]ccc2c1`, for which the TGI in experiment [1], in [2], in experiment [3], in [4], in experiment [5] and in [6] was > 31.6 µM each time. Also, the TGI in experiment [7] is > 10 µM; in experiment [10] it was > 31.6 µM; in [8] it was > 31.6 µM; in [9], > 31.6 µM.

Take `CCCC(=O)O[C@]1(C)CC[C@@H]2[C@H]3[C@@H]1[C@@H]1C[C@@](C)(O)[C@H](OC)CC[C@](C)(OC(=O)[C@@H]2C)[C@H]3O1`: the GI50 in [1] was 24.9 µM; in [2], 65.7 µM; in experiment [3], 55 µM; in [4], 82.7 µM; in [5], 36.5 µM; in experiment [6], 14.9 µM. For the same molecule, the GI50 is 43.4 µM in [7], 35.8 µM in experiment [10], 17.5 µM in [8] and 17.6 µM in [9]. Also, the TGI is 62 µM in [1]; > 100 µM in [2]; > 100 µM in [3]; > 100 µM in [4]; > 100 µM in experiment [5]; 28.1 µM in [6]. Also, the TGI in experiment [7] is > 100 µM; in [10], > 100 µM; in experiment [8] it was 31.2 µM; in [9], 31.4 µM.

Consider `CCCCCCCC(=O)OCC/C=C/C1OC1C1OC(=O)/C=C\C=C\C(=O)N(C(C)=O)C(=O)/C=C(/C)CCC2OC2C1OC(=O)NC(C)=O` (stereo not given), for which the GI50 in experiment [1] is 3.21 µM; in experiment [2] it was 6.46 µM; in [3] it was 18.9 µM; in experiment [4], 7.45 µM; in experiment [5] it was 1.8 µM; in experiment [6], 4.48 µM. Moreover, the GI50 in experiment [7] was 4.45 µM; in experiment [10], 2.14 µM; in experiment [8], 7.35 µM; in experiment [9] it was 0.823 µM. The TGI is 8.28 µM in [1]; 20.4 µM in experiment [2]; > 25 µM in experiment [3]; > 25 µM in experiment [4]; 4.97 µM in experiment [5]; > 25 µM in experiment [6]. Also, the TGI in experiment [7] was 16.2 µM; in experiment [10], 9.94 µM; in experiment [8] it was 19.1 µM; in [9], 7.38 µM.

For `CC(C)Cc1cnc(CC(C)C)c(=O)[nH]1`, the TGI in experiment [1], in experiment [2], in experiment [4], in experiment [5], in [6] and in experiment [7] was > 100 µM each time. Further, the TGI in [10], in experiment [8] and in experiment [9] was > 100 µM in each case.

Turning to `O=C1c2cccc3cccc(c23)C(=O)N1CCCCCN1CCN(CCN=c2cc3n(-c4ccc(Cl)cc4)c4ccccc4nc-3cc2Nc2ccc(Cl)cc2)CC1`, the GI50 in [3] was 35.6 µM; in experiment [4], 8.63 µM; in [5] it was 7.79 µM; in experiment [6], 7.54 µM; in [7], 38.3 µM; in experiment [10], 2.88 µM. Besides, the results for the GI50 in experiment [8] and in [9] were 8.93 µM and 7.32 µM, respectively. For the same molecule, the TGI in experiment [3] is > 50 µM; in [4], 23.5 µM; in experiment [5] it was 17.5 µM; in experiment [6], 25.4 µM; in experiment [7], > 50 µM; in experiment [10] it was > 50 µM. The TGI came out at 31.4 µM in experiment [8] and 19.7 µM in experiment [9].

With `O=c1c(-c2ccc3c(c2)OCO3)coc2c3c(ccc12)OCO3`, the TGI in experiment [1] was 59.7 µM; in experiment [2] it was > 100 µM; in experiment [4] it was 38.2 µM; in experiment [5], > 100 µM; in [6] it was > 100 µM; in experiment [7], > 100 µM. The values for the TGI in experiment [10], in [8] and in experiment [9] were 38.8 µM, > 100 µM and 38.5 µM, respectively.
